In patent US11583538B2, “Substituted pyrrolo[1,2-a]pyrazines and pyrrolo[1,2-a][1,4]diazepines as TREX1 inhibitors” (Venenum Biodesign, LLC, priority 2019, dated 2023):

Target: human TREX1 (Homo sapiens (Human), UniProt Q9NSU2)
Experiment: TREX1 Exonuclease Assay
Assay type: biochemical
Procedure: For human TREX1, the nucleotide sequence of the gene construct was codon optimized for expression in the bacterial host. The sequence was incorporated into the pMAL-c5e vector (NEB) downstream of a solubility-promoting MBP (maltose binding protein) fusion partner. The fusion protein product was expressed in E. coli strain BL21 (DE3) (Millipore) and purified in a series of chromatographic steps. Initial steps were conducted using a dextrin sepharose affinity column followed by a Q-sepharose ion exchange column (both GE Healthcare). After the second column the MBP partner was removed by incubation with enterokinase (NEB). Further purification was carried out with the second application of a Q-sepharose column followed by a Superdex 75 (GE Healthcare) size exclusion column. Finally, a heparin sepharose column (GE Healthcare) was applied to remove contaminating nucleotides.
To evaluate the effect of compounds on TREX1 activity, test compounds were serially diluted (11-point, 3-fold) from 10 mM stock solutions and delivered to 384-well low-volume assay plates in 80 nL DMSO using an acoustic dispenser. Next, 4 μL of human TREX1 (0.5 nM), or murine TREX1 (1 nM), diluted in assay buffer (20 mM Tris pH 7.5, 5 mM MgCl2, 100 μg/mL BSA, 0.002% Triton X-100, 2 mM DTT), was added to the assay plate. After incubating for 30 minutes, 4 μL of labeled DNA oligonucleotide (500 nM) in assay buffer was added to initiate TREX1 exonuclease activity. The reaction was allowed to proceed for 45 minutes at room temperature prior to the addition of 4 μL of 150 mM EDTA to halt TREX1 activity.

Sequence of human TREX1 (Q9NSU2 whole entry): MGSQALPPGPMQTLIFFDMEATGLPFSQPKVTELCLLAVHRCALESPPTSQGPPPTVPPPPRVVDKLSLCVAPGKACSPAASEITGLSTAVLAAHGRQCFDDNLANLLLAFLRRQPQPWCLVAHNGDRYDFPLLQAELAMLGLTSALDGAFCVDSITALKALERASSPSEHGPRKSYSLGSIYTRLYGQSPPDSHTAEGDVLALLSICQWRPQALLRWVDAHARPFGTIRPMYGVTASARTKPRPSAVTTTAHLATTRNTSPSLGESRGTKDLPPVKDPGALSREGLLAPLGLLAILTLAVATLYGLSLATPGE

SMILES: COc1ccc(CNC(=O)[C@@H](CC(C)C)N2CCC(CCc3ccccc3)N3C[C@H](N)C[C@H]3C2=O)cc1 (stereo partly shown) [Example 59]
- IC50: < 1000 nM

SMILES: N[C@@H]1C[C@H]2C(=O)N([C@H]3CCCN(S(=O)(=O)c4ccc(Cl)c(Cl)c4)C3)CCC(CCc3ccccc3)N2C1 (stereo partly shown) [Example 86]
- IC50: 1000 to 9990 nM

SMILES: NC(=O)C[C@H](C(=O)NCc1ccc(Cl)c(Cl)c1)N1CCC(CCc2ccccc2)N2C[C@H](N)C[C@H]2C1=O (stereo partly shown) [Example 23]
- IC50: < 1000 nM

SMILES: CC(C)Oc1c(CNC(=O)[C@@H](CCc2nnn[nH]2)N2CCC(CCc3ccccc3)N3C[C@H](N)C[C@H]3C2=O)ccc(Cl)c1Cl (stereo partly shown) [Example 144]
- IC50: < 1000 nM

SMILES: CCOC(=O)CC[C@H](C(=O)NCc1ccc(Cl)c(Cl)c1)N1CCC(CCc2ccccc2)N2C[C@H](N)C[C@H]2C1=O (stereo partly drawn) [Example 89, (4R)-ethyl 4-((8R,9aS)-8-amino-1-oxo-5-phenethylhexahydro-1H-pyrrolo[1,2-a][1,4]diazepin-2(3H)-yl)-5-((3,4-dichlorobenzyl)amino)-5-oxopentanoate]
- IC50: < 1000 nM

SMILES: CC(C)C[C@H](C(=O)NS(=O)(=O)c1ccccc1)N1CCC(CCc2ccccc2)N2C[C@H](N)C[C@H]2C1=O (stereo partly shown) [Example 61]
- IC50: < 1000 nM

SMILES: N[C@@H]1C[C@H]2C(=O)N([C@H](CCC(=O)O)C(=O)NCc3ccc(Cl)c(Cl)c3)CCC(CCOc3ccccc3)N2C1 (stereo partly drawn) [Example 71, (4R)-4-((8R,9aS)-8-amino-1-oxo-5-(2-phenoxyethyl)hexahydro-1H-pyrrolo[1,2-a][1,4]diazepin-2(3H)-yl)-5-((3,4-dichlorobenzyl)amino)-5-oxopentanoic Acid]
- IC50: 1000 to 9990 nM

SMILES: NC(=O)CC[C@H](C(=O)N1Cc2cc(Cl)c(Cl)cc2C1)N1CCC(CCc2ccccc2)N2C[C@H](N)C[C@H]2C1=O (stereo partly shown) [Example 20]
- IC50: 10000 to 100000 nM

SMILES: N#CC[C@H](C(=O)N1CCOC[C@@H]1c1ccccc1)N1CCC(CCc2ccccc2)N2C[C@H](N)C[C@H]2C1=O (stereo partly shown) [Example 68]
- IC50: 10000 to 100000 nM

SMILES: CC(C)C[C@H](C(=O)NCc1ccc(Cl)c(F)c1)N1CCC(CCc2ccccc2)N2C[C@H](N)C[C@H]2C1=O (stereo partly shown) [Example 54]
- IC50: < 1000 nM

SMILES: CN(Cc1ccc(Cl)c(Cl)c1)C(=O)[C@@H](CC#N)N1CCC(CCc2ccccc2)N2C[C@H](N)C[C@H]2C1=O (stereo partly shown) [Example 65]
- IC50: < 1000 nM

SMILES: CC(C)C[C@H](C(=O)NCc1ccc(Cl)c(C(F)(F)F)c1)N1CCC(CCc2ccccc2)N2C[C@H](N)C[C@H]2C1=O (stereo partly shown) [Example 55]
- IC50: < 1000 nM

SMILES: CCOC(=O)CC[C@H](C(=O)N1CCCC[C@H]1c1ccc(Cl)c(Cl)c1)N1CCC(CCc2ccccc2)N2C[C@H](N)C[C@H]2C1=O (stereo partly shown) [Example 97]
- IC50: < 1000 nM

SMILES: COC(=O)CC[C@H](C(=O)NCc1ccc(Cl)c(Cl)c1)N1CCC(CCc2ccccc2)N2C[C@H](N)C[C@H]2C1=O (stereo partly drawn) [Example 104, (4R)-methyl 4-((8R,9aS)-8-amino-1-oxo-5-phenethylhexahydro-1H-pyrrolo[1,2-a][1,4]diazepin-2(3H)-yl)-5-((3,4-dichlorobenzyl)amino)-5-oxopentanoate]
- IC50: < 1000 nM

SMILES: N#CCC[C@H](C(=O)NCc1ccc(Cl)c(Cl)c1)N1CCC(COc2ccc(F)cc2)N2C[C@H](N)C[C@H]2C1=O (stereo partly shown) [Example 110]
- IC50: < 1000 nM

SMILES: N=C(N)NCCC[C@H](C(=O)NCc1ccc(Cl)c(Cl)c1)N1CCC(CCc2ccccc2)N2C[C@H](N)C[C@H]2C1=O (stereo partly shown) [Example 24]
- IC50: < 1000 nM

SMILES: N[C@@H]1C[C@H]2C(=O)N([C@H](CCC(=O)O)C(=O)NCc3ccc(Cl)c(C(F)(F)F)c3)CCC(CCc3ccccc3)N2C1 (stereo partly shown) [Example 146]
- IC50: < 1000 nM

SMILES: CC(C)C[C@H](C(=O)NCc1ccc(Cl)cc1Cl)N1CCC(CCc2ccccc2)N2C[C@H](N)C[C@H]2C1=O (stereo partly shown) [Example 48]
- IC50: 1000 to 9990 nM

SMILES: N[C@@H]1C[C@H]2C(=O)N([C@H]3CCN(Cc4ccc(Cl)c(Cl)c4)C3=O)CCC(CCc3ccccc3)N2C1 (stereo partly shown) [Example 33]
- IC50: < 1000 nM

SMILES: COC(=O)CC[C@H](C(=O)NCc1ccc(Cl)cn1)N1CCC(CCc2ccccc2)N2C[C@H](N)C[C@H]2C1=O (stereo partly shown) [Example 100]
- IC50: < 1000 nM

SMILES: N#CC[C@H](C(=O)N1CCOC[C@H]1c1ccccc1)N1CCC(CCc2ccccc2)N2C[C@H](N)C[C@H]2C1=O (stereo partly shown) [Example 69]
- IC50: 1000 to 9990 nM

SMILES: N#CCC[C@H](C(=O)NCc1ccc(Cl)c(Cl)c1)N1CCC(COc2cccc(F)c2)N2C[C@H](N)C[C@H]2C1=O (stereo partly shown) [Example 111]
- IC50: < 1000 nM

SMILES: N#CC[C@H](C(=O)N1CCc2cc(Cl)c(Cl)cc2C1)N1CCC(CCc2ccccc2)N2C[C@H](N)C[C@H]2C1=O (stereo partly shown) [Example 66]
- IC50: 1000 to 9990 nM

SMILES: N#CC[C@H](C(=O)NCc1ccc(Cl)c(C(F)(F)F)c1)N1CCC(CCc2ccccc2)N2C[C@H](N)C[C@H]2C1=O (stereo partly shown) [Example 64]
- IC50: < 1000 nM

SMILES: N[C@@H]1C[C@H]2C(=O)N([C@H](CCC(=O)NO)C(=O)NCc3ccc(Cl)c(Cl)c3)CCC(CCc3ccccc3)N2C1 (stereo partly shown) [Example 116]
- IC50: < 1000 nM

SMILES: N[C@@H]1C[C@H]2C(=O)N([C@@H]3CCCN(C(=O)c4ccc(Cl)c(Cl)c4)C3)CCC(CCc3ccccc3)N2C1 (stereo partly shown) [Example 85]
- IC50: 10000 to 100000 nM

SMILES: COc1cc(Cl)c(Cl)cc1CNC(=O)[C@@H](CCC(=O)O)N1CCC(CCc2ccccc2)N2C[C@H](N)C[C@H]2C1=O (stereo partly shown) [Example 21]
- IC50: < 1000 nM

SMILES: CC(=O)NCC[C@H](C(=O)NCc1ccc(Cl)c(Cl)c1)N1CCC(CCc2ccccc2)N2C[C@H](N)C[C@H]2C1=O (stereo partly shown) [Example 131]
- IC50: < 1000 nM

SMILES: N[C@@H]1C[C@H]2C(=O)N([C@H]3CCCN(Cc4ccc(Cl)c(Cl)c4)C3=O)CCC(CCc3ccccc3)N2C1 (stereo partly shown) [Example 34]
- IC50: < 1000 nM

SMILES: COc1ccc(OCC2CCN([C@H](CCC(=O)O)C(=O)NCc3ccc(Cl)c(Cl)c3)C(=O)[C@@H]3C[C@@H](N)CN23)cc1 (stereo partly drawn) [Example 72, (4R)-4-((8R,9aS)-8-amino-5-((4-methoxyphenoxy)methyl)-1-oxohexahydro-1H-pyrrolo[1,2-a][1,4]diazepin-2(3H)-yl)-5-((3,4-dichlorobenzyl)amino)-5-oxopentanoic Acid]
- IC50: 1000 to 9990 nM

SMILES: CC(C)C[C@H](C(=O)NCc1ccc(C(F)(F)F)c(F)c1)N1CCC(CCc2ccccc2)N2C[C@H](N)C[C@H]2C1=O (stereo partly shown) [Example 56]
- IC50: < 1000 nM

SMILES: N[C@@H]1C[C@H]2C(=O)N([C@H](CCC(=O)O)C(=O)NCc3cc(Cl)c(Cl)cc3F)CCC(CCc3ccccc3)N2C1 (stereo partly shown) [Example 31]
- IC50: < 1000 nM

SMILES: CCOC(=O)CC[C@H](C(=O)NCc1cc(Cl)c(Cl)cc1OC)N1CCC(CCc2ccccc2)N2C[C@H](N)C[C@H]2C1=O (stereo partly shown) [Example 103]
- IC50: < 1000 nM

SMILES: N[C@@H]1C[C@H]2C(=O)N([C@H](CCC(=O)O)C(=O)NCc3ccc(Cl)c(Cl)c3)CCC(COc3ccc(Cl)cc3)N2C1 (stereo partly shown) [Example 74]
- IC50: < 1000 nM

SMILES: CC(C)C[C@H](C(=O)NCc1ccccc1Cl)N1CCC(CCc2ccccc2)N2C[C@H](N)C[C@H]2C1=O (stereo partly shown) [Example 44]
- IC50: < 1000 nM

SMILES: Cc1ccc(CNC(=O)[C@@H](CC(C)C)N2CCC(CCc3ccccc3)N3C[C@H](N)C[C@H]3C2=O)cc1Cl (stereo partly shown) [Example 57]
- IC50: < 1000 nM

SMILES: COc1c(CNC(=O)[C@@H](CCC#N)N2CCC(CCc3ccccc3)N3C[C@H](N)C[C@H]3C2=O)ccc(Cl)c1Cl (stereo partly shown) [Example 108]
- IC50: < 1000 nM

SMILES: CCOC(=O)CC[C@H](C(=O)NCc1ccc(Cl)c(Cl)c1)N1CCC(CCc2ccccc2)N2C[C@H](NC(=O)OCC)C[C@H]2C1=O (stereo partly shown) [Example 145]
- IC50: 10000 to 100000 nM

SMILES: Cn1c(Cl)ccc(CNC(=O)[C@@H](CCC(=O)O)N2CCC(CCc3ccccc3)N3C[C@H](N)C[C@H]3C2=O)c1=O (stereo partly shown) [Example 37]
- IC50: < 1000 nM

SMILES: N[C@@H]1C[C@H]2C(=O)N([C@H](CCC(=O)O)C(=O)NCc3ccc(Cl)c(Cl)c3)CCC(COc3cccc(Cl)c3)N2C1 (stereo partly shown) [Example 76]
- IC50: < 1000 nM

SMILES: CS(=O)(=O)NCC[C@H](C(=O)NCc1ccc(Cl)c(Cl)c1)N1CCC(CCc2ccccc2)N2C[C@H](N)C[C@H]2C1=O (stereo partly shown) [Example 132]
- IC50: < 1000 nM

SMILES: NC(=O)C[C@H](C(=O)NCc1ccc(Cl)c(Cl)n1)N1CCC(CCc2ccccc2)N2C[C@H](N)C[C@H]2C1=O (stereo partly shown) [Example 36]
- IC50: < 1000 nM

SMILES: CC(C)OC(=O)CC[C@H](C(=O)NCc1ccc(Cl)c(Cl)c1)N1CCC(CCc2ccccc2)N2C[C@H](N)C[C@H]2C1=O (stereo partly shown) [Example 92]
- IC50: < 1000 nM

SMILES: N[C@@H]1C[C@H]2C(=O)N([C@H](CCC(=O)O)C(=O)NCc3ccc(Cl)cn3)CCC(CCc3ccccc3)N2C1 (stereo partly drawn) [Example 70, (4R)-4-((8R,9aS)-8-amino-1-oxo-5-phenethylhexahydro-1H-pyrrolo[1,2-a][1,4]diazepin-2(3H)-yl)-5-(((5-chloropyridin-2-yl)methyl)amino)-5-oxopentanoic Acid]
- IC50: < 1000 nM

SMILES: COC(=O)CC[C@H](C(=O)NS(=O)(=O)c1ccc(Cl)c(Cl)c1)N1CCC(CCc2ccccc2)N2C[C@H](N)C[C@H]2C1=O (stereo partly shown) [Example 101]
- IC50: < 1000 nM

SMILES: CC(C)Oc1c(CNC(=O)[C@@H](CCC#N)N2CCC(CCc3ccccc3)N3C[C@H](N)C[C@H]3C2=O)ccc(Cl)c1Cl (stereo partly shown) [Example 141]
- IC50: < 1000 nM

SMILES: N[C@@H]1C[C@H]2C(=O)N([C@H](CCNS(=O)(=O)C(F)(F)F)C(=O)NCc3ccc(Cl)c(Cl)c3)CCC(CCc3ccccc3)N2C1 (stereo partly shown) [Example 142]
- IC50: < 1000 nM

SMILES: CCOC(=O)CC[C@H](C(=O)NCc1cc(Cl)c(Cl)cc1F)N1CCC(CCc2ccccc2)N2C[C@H](N)C[C@H]2C1=O (stereo partly shown) [Example 94]
- IC50: < 1000 nM

SMILES: N[C@@H]1C[C@H]2C(=O)N([C@H](CCC(=O)O)C(=O)NCc3ccc(Cl)c(Cl)n3)CCC(CCc3ccccc3)N2C1 (stereo partly shown) [Example 25]
- IC50: < 1000 nM
